Measured values taken from article PMC3636874, “An Antedrug of the CXCL12 Neutraligand Blocks Experimental Allergic Asthma without Systemic Effect in Mice” (The Journal of Biological Chemistry, 2013).
Converted amounts (≈) assume the structure as drawn.

What was measured:
[1] = test system: CXCL12 action on forskolin-evoked cAMP responses via CXCR4; assay: cAMP determination with BRET sensor CAMYEL in HEK EGFP-hCXCR4 cells; type: cell-based; details: Homo sapiens; HEK293 EGFP-hCXCR4, 1 μM forskolin, 3 nM CXCL12; read-out: IC50, inhibition of CXCL12 effect on forskolin-evoked cAMP formation
Procedure: CXCR4 receptor coupling to adenylyl cyclase was assessed by measuring the dose-dependent inhibitory effects of chemokine with or without chalcone on forskolin-stimulated cAMP accumulation. To facilitate studies of cAMP regulation, we used a developed bioluminescence resonance energy transfer (BRET) sensor for cAMP, CAMYEL (cAMP sensor using YFP-Epac-RLuc), which can quantitatively and rapidly monitor intracellular concentrations of cAMP in cells ([47]). HEK EGFP-hCXCR4 cells were cultured to ∼80% confluence in 75-cm^2 flasks in MEM with Earle's salt supplemented with 10% fetal calf serum, 2 mM glutamine, and 1% antibiotics (penicillin/streptomycin). Cells were plated on 10-cm plates and transfected with 10 μg of CAMYEL plasmid using the calcium phosphate precipitation method. Two days later, cells were plated in 96-well solid white tissue culture plates (Greiner) at a density of 60,000 cells/well the day before cAMP assay. […] The BRET assay was carried out with a Victor Light plate reader (PerkinElmer Life Sciences). Emission signals from Renilla luciferase and YFP were measured sequentially using a BRET1 filter set (475-30/535-30). […] After 5 min, 10 μl of a Hanks' balanced salt solution of coelenterazine-H (2 μM) were added, and plates were incubated for 10 min at 37 °C before reading.

[2] = Thermodynamic solubility (HPLC); type: physicochemical; details: for solubility: phosphate-buffered saline, PBS pH 7.4, 21 °C, 24 h shaking (CN-chalcone 4: 2 h, estimate), read-out: solubility in saline buffer; for maximal concentration dissolved with HP-βCD: physiological solution with 10% HP-βCD, 21 °C (CN-chalcone 4: 2 h, estimate)
Procedure: (§1) Solubility and stability studies were performed on a Gilson HPLC system with a photodiode array detector, an autosampler, and a Valco injector. Data acquisition and processing were performed with Trilution LC version 2.0 software. Measurements were carried out at 21 ± 1 °C. A 2.6-μm Kinetex column (50 × 4.6 mm) was used for stability studies in biological media, and a 5-μm Luna C18(2) column (50 × 4.6 mm) was used for solubility and chemical stability analysis. Both columns were purchased from Phenomenex. The injection volume was 20 μl, the mobile phase flow rate was 2 ml/min, and the following program was applied for the elution: 0–0.2 min, 0% B; 0.2–2.7 min, 0–100% B; 2.7–3.2 min, 100% B; 3.2–3.4 min, 100–0% B; 3.4–6.1 min, 0% B. Solvent B was HPLC grade acetonitrile (Sigma-Aldrich CHROMASOLV). The aqueous solvent contained 0.1% trifluoroacetic acid, and the detection wavelength was 365 nm.
Thermodynamic solubility was measured by dissolving the compounds up to saturation in a pH 7.4 phosphate-buffered saline (PBS) with the following composition: 137.5 mM NaCl, 2.7 mM KCl, 4.3 mM Na2HPO4, and 1.4 mM KH2PO4 supplemented or not with 10% hydroxypropyl-β-cyclodextrin (HP-βCD). Samples were shaken for 24 h at 21 ± 1 °C. Saturation was confirmed by the presence of undissolved powder. After ultracentrifugation, the concentration in the supernatant was measured by an HPLC procedure using a calibration curve established for each compound by diluting a 10 mM DMSO stock solution to adapted concentrations. Due to rapid degradation of CN-chalcone 4, solubility was determined after 2 h of shaking. The indicated value given for CN-chalcone 4 is thus an estimate of the solubility.

Stability in mouse serum = type: in vitro ADME; details: 37 °C; for half-life at 20 μM: mouse, mouse serum
Procedure: as §1
Stability of chalcones was determined in mouse serum with or without 10% HP-βCD at 37 °C up to 16 h. For each compound, the 10 mM DMSO stock solution was diluted in serum to a final concentration of 20 μM with 1% DMSO. For the measurements with HP-β-cyclodextrin, a solution of PBS (pH 7.4) containing 10% (v/w) HP-βCD was saturated with compound powder. The saturated solution was then diluted in murine serum to a final compound concentration of 20 μM. The mixture was divided into five aliquots. The incubation of each aliquot was stopped at t0 and 30 min, 1, 2, and 16 h for chalcone 4 and at t0 and 15, 30, 45, and 60 min for CN-chalcone 4 by adding one volume of ice cold acetonitrile. Samples were stirred for 3 min, sonicated for 3 min, and then centrifuged at 4 °C before HPLC injection. The percentage of remaining test compound relative to t0 was measured by monitoring the peak area on the chromatogram.

[3] = Stability in mouse lung homogenate; type: in vitro ADME; details: 37 °C; for half-life at 20 μM: mouse, mouse lung homogenate
Procedure: as §1
Stability of chalcones was determined in mouse lung homogenate with or without HP-βCD 10% at 37 °C. Lung homogenate was prepared separately with a Fastprep® (Q-BIOgene, Illkirch, France) in PBS (one lung homogenized in 1 ml of buffer). For each compound, the incubation solutions, the sampling, and the extraction conditions were prepared as described under “Stability in Mouse Serum.”

[4] = 20 μM, with 10% HP-βCD, read-out: Stability half-life (t1/2), murine serum, 10% β-cyclodextrine (converted)
[5] = 20 μM, read-out: Stability half-life (t1/2), murine serum (converted)
[6] = with 10% HP-βCD, read-out: Stability half-life (t1/2), lung homogenate, 10% β-cyclodextrine (converted)

| SMILES | IC50 [1] [µM] | solubility [2] [µM] | maximal concentration dissolved with HP-βCD [2] [µM] | half-life at 20 μM (Stability in mouse serum; [4]) [min] | half-life at 20 μM (Stability in mouse serum; [5]) [min] | half-life at 20 μM (Stability in mouse serum; read-out: t½ in murine serum) [min] | half-life at 20 μM ([3]; 10% HP-βCD, read-out: half-life in lung homogenate in the presence of HP-βCD) [min] | half-life at 20 μM [3, 6] [min] | half-life at 20 μM ([3]; read-out: Stability half-life (t1/2), lung homogenate (converted)) [min] | half-life at 20 μM ([3]; read-out: t½ in lung homogenate) [min] | percentage of starting molecule recovered, murine serum (Stability in mouse serum; at 16 h) [%] | percentage of starting molecule recovered, murine serum, 10% β-cyclodextrine (Stability in mouse serum; at 16 h) [%] | percentage of starting molecule recovered, lung homogenate, 10% β-cyclodextrine ([3]; at 16 h) [%] |
| --- | --- | --- | --- | --- | --- | --- | --- | --- | --- | --- | --- | --- | --- |
| COc1cc(/C=C(\C#N)C(=O)c2ccc(Cl)cc2)ccc1O [CN-chalcone 4, (E)-2-(4-chlorobenzoyl)-3-(4-hydroxy-3-methoxyphenyl)acrylonitrile] | 6.9 ± 0.4 | 16 ± 2 (≈ 5.02 µg/mL) | 493 ± 36 | 78 | 18 | 20 | 40 | 36 | 24 | 25 | – | – | – |
| COc1cc(/C=C/C(=O)c2ccc(Cl)cc2)ccc1O [chalcone 4] | 4.1 ± 0.3 | 9 ± 1 (≈ 2.6 µg/mL) | 690 ± 44 | > 960 | > 960 | – | – | > 960 | – | – | 96 | 91 | 66 |
